Consider two compounds from patent US20130022645A1, “PHARMACEUTICAL FORMULATIONS OF BISPHOSPHONATE WITH ENHANCED ORAL BIOAVAILABILITY” (DONG-A PHARM. CO., LTD., priority 2011, published 2013).

Data set [1] can be described thus: In vitro inhibitory activity of phytic acid and EDTA against complexation of bisphosphonate with calcium (residual risedronate in solution by HPLC). It is filed as physicochemical. The following applies: for Inhibition of calcium-risedronate complexation: Tables 2 to 4, FIGS. 1 to 3. Here is the method: Herein, in vitro tests in which after bisphosphonate and a chelating agent were simultaneously added to a solution containing a predetermined amount of calcium ions, correlation between time and residual bisphosphonate in the solution was determined were performed as explained in the following Reference Examples.
Various 50 mL solutions containing 50 mg, 10 mg and 5 mg of calcium in combination with 50 mg and 100 mg of EDTA, or […] as a chelating agent were prepared and used respectively in Reference Examples 1 to 15.
The mechanism in which a chelating agent facilitates the absorption of bisphosphonate can be explained as the degree to which the chelating inhibits bisphosphonate's activity of reacting with minerals (calcium, magnesium, etc.) in the gastrointestinal tract to form insoluble complexes. Thus, in vitro tests for assaying the inhibitory activity of phytic acid or EDTA against the complexation of bisphosphonate in calcium-containing solutions were conducted in Reference Test Example 1.
In a container with a cap, 25 mL of each of the solutions prepared in Reference Example 1 to 15 was placed, followed by agitation at 100 rpm for 120 min in an agitation bath maintained at 37° C. Approximately 1 mL of each of the solutions was taken at time points (immediately after preparation, and 15, 30, 60, 90 and 120 min after agitation) and allowed to pass through 0.45 μm PVDF membrane filters to remove precipitates. Residual resedronate in the solutions was quantitatively analyzed by HPLC.

Another data set concerns intestinal mucosa. Conditions: rabbits; cited from earlier work.

Each structure is given as a SMILES string. Entries after “also recorded” stand apart in the source; their conditions may differ.

As to `O=C(O)CN(CCN(CC(=O)O)CC(=O)O)CC(=O)O` [EDTA], the “Inhibition of calcium-risedronate complexation” value in data set [1] is reported as “inhibit calcium-risedronate complexation in a dose-dependent manner”. In addition, the “Effect on intestinal mucosa” value in the data set on intestinal mucosa is on record as “irritate the intestinal mucosa”.

For `O=P(O)(O)O[C@H]1[C@H](OP(=O)(O)O)[C@@H](OP(=O)(O)O)[C@H](OP(=O)(O)O)[C@@H](OP(=O)(O)O)[C@H]1OP(=O)(O)O` [phytic acid, inositol hexakisphosphate], the “Inhibition of calcium-risedronate complexation” value in data set [1] was “inhibit calcium-risedronate complexation in a dose-dependent manner”. Besides, in data set [1] (in vitro tests), the “Inhibitory activity against complexation compared with EDTA” value is on record as “poorer in inhibitory activity against complexation than was EDTA”. In addition, in data set [1] (in vitro, Reference Examples 6 to 10), the “Amount of phytic acid relative to EDTA needed for the same inhibition of calcium-risedronate complexation” value is “at least twice the amount of EDTA; also recorded: twice as large as that of EDTA”.
